According to patent US20100179172A1, “N-PHENYL-METHANAMINE DERIVATIVE AND PESTICIDE CONTAINING IT” (priority 2007, published 2010):

Test system: Larval ticks (Haemaphysalis longicornis)
Assay: Test on controlling effects against Haemaphysalis longicornis (Petri dish contact, knock down time, Test Example 7)
Assay type: in vivo
Conditions: 1 ml in Petri dish, 25° C.
Experimental: On an inner surface of a Petri dish having a diameter of 9 cm, 1 ml of a solution of the compound No. 40 in acetone (concentration: 10 μg/ml, 1 μg/ml or 0.1 μg/ml) was dropped by a micro pipette. After the inner surface of the Petri dish was dried, 100 Larval ticks (Haemaphysalis longicornis) were put, and the Petri dish was covered with a polyethylene sheet and sealed by a rubber band. Thereafter, the Petri dish was left to stand still at a constant temperature of 25° C. under a relative humidity of 100% under a constant dark condition except for the time of observation. Observation was carried out every time upon expiration of a certain time (i.e. after 5, 10, 20, 30, 60, 120, 180 and 240 minutes), and the number of ticks knocked down after contact with the compound was counted. As a control group, Larval ticks were put in a Petri dish having 1 ml of acetone dropwise added and observed in the same manner. The above operation was repeated twice.
From the number of knocked down ticks in each observation, the survival rate was obtained, and a corrected mortality was calculated by the following Abbott correction formula. Then, probit-time linear line was drawn, and the median knock down time (KT50 value) was obtained.
Corrected mortality (%)=[(Survival rate in control group−Survival rate in treated group)/Survival rate in control group]×100

Cc1ncccc1CN(Cc1ccccn1)c1cc(C(F)(F)F)c(Br)c(C(F)(F)F)c1 [compound 40]
KT50 value, Average (0.1 μg/ml): 38 min | KT50 value, First time (0.1 μg/ml): 40 min | KT50 value, Second time (0.1 μg/ml): 35 min | KT50 value, Average (1 μg/ml): 50 min | KT50 value, First time (1 μg/ml): 50 min | KT50 value, Second time (1 μg/ml): 50 min | KT50 value, Average (10 μg/ml): 40 min | KT50 value, First time (10 μg/ml): 40 min | KT50 value, Second time (10 μg/ml): 40 min
